Results taken from patent US20100036088A1, “Selective poly-N-substituted glycine antibiotics” (priority 2008, published 2010).
pIC50: −log10 of the molar value. Read-outs that look alike come from different tables or passages of the source. Square brackets hold non-standard residues; d marks the D form. Peptide text beside a SMILES is read from it. Nrpe = C[C@@H](NCC(=O)O)c1ccccc1; Nspe = C[C@H](NCC(=O)O)c1ccccc1; Nphe = O=C(O)CNCc1ccccc1; Nlys = NCCCCNCC(=O)O

Assays:
[1] = test system: human erythrocytes; experiment: Hemolysis assay; format: cell-based
Protocol: Hemolysis assays. Erythrocytes were isolated from freshly drawn, heparanized human blood and resuspended to 20 vol % in PBS (pH 7.4). In a 96-well microtiter plate, 100 μL erythrocyte suspension was added to 100 μL peptoid solution in PBS (prepared by 1:2 serial dilutions), or 100 μL PBS in the case of negative controls. 100% hemolysis wells contained 100 μL blood cell suspension with 100 μL 0.2 vol % Triton X-100. The plate was incubated for 1 h at 37° C., then each well was diluted with 150 μL PBS. The plate was then centrifuged at 1200 g for 15 min, 100 μL of the supernatant from each well transferred to a fresh microtiter plate, and A350 measured.
Hemolysis assays. Erythrocytes were isolated from freshly drawn, heparanized human blood and resuspended in PBS (pH 7.4) to make a 20% volume suspension. Peptoid solutions were prepared by serial dilution (2:1) in a 96-well microtiter plate. For test wells, 100 μL of erythrocyte suspension was added to 100 μL of peptoid solution in PBS; PBS without peptoid was used as the negative control and 0.2 vol % Triton X-100 as the positive control that indicates 100% hemolysis. After 1 hour incubation at 37° C., each well was diluted with 150 μL PBS. Plates were then centrifuged at 1,200×g for 15 minutes to pellet the cells. 30 μL of the supernatant from each well were transferred to the corresponding well of a second 96-well plate that contains 70 μL PBS.

[2] = test system: B. subtilis (ATCC 6633); format: cell-based; conditions: ATCC 6633
Protocol: (§1) Whereas the preceding generation of molecules was designed to elucidate structure function relationships of specific molecular parameters (chirality, length, hydrophobicity, etc.), another generation compounds were designed explicitly to explore effects on selectivity. Antimicrobial activity of these compounds was tested against bacterial strains E. coli (ATTC 35218) and B. subtilis (ATTC 6633) in cation-adjusted MHB using the microdilution protocols previously described. The sequences, antimicrobial activities, hemolytic activities, and metabolic inhibitory concentrations against NIH 3T3 mouse fibroblast cells are summarized in Table 3 and the rationale of their design is described below.
(§2) The potencies of all compounds were determined against representative Gram-negative (E. coli ATCC 35218) and Gram-positive (B. subtilis ATCC 6633) biosafety level 1 (BSL1) organisms. In addition to hemolytic activity, the conventional measure of toxicity to mammalian cells, the effect of each ampetoid on NIH 3T3 mouse fibroblast cells was determined using the MTS tetrazolium salt-based calorimetric assay. While hemolysis measures the degree to which erythrocytes are lysed, the MTS assay indirectly quantifies the extent to which cellular metabolic activity is inhibited.
(§3) Screening antibacterial assays. MICs were determined in 96-well microtiter plates in accordance with CLSI M7-A6 protocols. Peptoid solutions with 50 μL total volume were prepared using 2:1 serial dilutions. 50 μL of bacteria inoculum (1×10^6 CFU/mL) prepared in cation-adjusted Mueller-Hinton broth (CAMHB) was added to test wells. Control wells contained 100 μL MHB (no growth) or 50 μL inoculums with 50 μL MHB with no peptoid. […] Reported values were reproducible over three experiments, each containing two parallel trials.

[3] = test system: E. coli (ATCC 35218); format: cell-based; conditions: ATCC 35218
Protocol: as §1, §2, §3

[4] = MTS assay, metabolic inhibition; format: cell-based, mouse
Protocol: as §2
MTS assays. NIH/3T3 cells (ATCC Corporation) cultured at 37° C. and 5% CO2 in complete Dulbecco's modified eagle's media (CDMEM) supplemented with 1% sodium pyruvate, 1% penicillin-streptomycin, 1.5 g/L NaHCO3, and 10% fetal bovine serum. Cells were seeded at a density of 5,000 cells per well for NIH/3T3 cells in 96-well plates (100 μl total volume). A peptoid solution plate (100 μL total volume per well) was prepared by serial dilution of aqueous peptoid stock solution in Hank's balanced salt solution (HBSS) media. The day-old cell monolayers were washed with HBSS and media was replaced with 100 μL HBSS. The contents of the peptoid solution plate were transferred onto corresponding wells of the cell monolayer plate, and 40 μL MTS reagent (Promega, Inc.) was added to each well. After incubating for 3 hours at 37° C., absorbance at 490 nm was determined. […] The average of six replicates is reported.

[5] = Table 6, NIH 3T3 mouse fibroblast cells

| SMILES | B. subtilis MIC [2] | E. coli MIC [3] | pIC50 [4] | HD10 ([1]; Table 6) | HD50 ([1]; Table 6) | B. subtilis MIC ([2]; Table 6) | E. coli MIC ([3]; Table 6) | pIC50 [4, 5] | HD10 [1] | HD50 [1] |
| --- | --- | --- | --- | --- | --- | --- | --- | --- | --- | --- |
| C[C@H](c1ccccc1)N(CC(N)=O)C(=O)CN(C(=O)CN(CCCCN)C(=O)CN(C(=O)CN(C(=O)CN(CCCCN)C(=O)CN(C(=O)CN(C(=O)CN(CCCCN)C(=O)CN(C(=O)CN(C(=O)CNCCCCN)[C@@H](C)c1ccccc1)[C@H](C)c1ccccc1)[C@@H](C)c1ccccc1)[C@H](C)c1ccccc1)[C@@H](C)c1ccccc1)[C@H](C)c1ccccc1)[C@@H](C)c1ccccc1 [1-Nrpe3,6,9,12, H-(Nlys-Nspe-Nrpe)4-NH2] | – | – | – | 16 µM | 67 µM | 1.6 µM | 6.3 µM | 5.42 | – | – |
| C[C@H](c1ccccc1)N(CC(=O)N(CCCCN)CC(=O)N(CC(=O)N(CC(=O)N(CCCCN)CC(=O)N(CC(=O)N(CC(=O)N(CCCCN)CC(=O)N(CC(=O)N(CC(N)=O)[C@@H](C)c1ccccc1)[C@@H](C)c1ccccc1)[C@@H](C)c1ccccc1)[C@@H](C)c1ccccc1)[C@H](C)c1ccccc1)[C@H](C)c1ccccc1)C(=O)CN(C(=O)CNCCCCN)[C@H](C)c1ccccc1 [1-Nrpe2,3,5,6, H-(Nlys-Nrpe-Nrpe)2-(Nlys-Nspe-Nspe)2-NH2] (H-[Nlys][Nrpe][Nrpe][Nlys][Nrpe][Nrpe][Nlys][Nspe][Nspe][Nlys][Nspe][Nspe]-NH2) | – | – | – | 25 µM | 96 µM | 0.78 µM | 6.3 µM | 5.32 | – | – |
| C[C@@H](c1ccccc1)N(CC(N)=O)C(=O)CN(CCCCN)C(=O)CN(CCCCN)C(=O)CN(C(=O)CN(C(=O)CN(CCCCN)C(=O)CN(C(=O)CN(CCCCN)C(=O)CN(CCCCN)C(=O)CN(C(=O)CN(C(=O)CNCCCCN)[C@@H](C)c1ccccc1)[C@@H](C)c1ccccc1)[C@@H](C)c1ccccc1)[C@@H](C)c1ccccc1)[C@@H](C)c1ccccc1 [1-Nlys5,11, H-(Nlys-Nspe-Nspe-Nlys-Nlys-Nspe)2-NH2] (H-[Nlys][Nspe][Nspe][Nlys][Nlys][Nspe][Nlys][Nspe][Nspe][Nlys][Nlys][Nspe]-NH2) | 1.6 µM | 50 µM | 4.07 | – | – | – | – | – | >100/>100 μM | >100/>100 μM |
| C[C@@H](c1ccccc1)N(CC(N)=O)C(=O)CN(C(=O)CN(CCCCN)C(=O)CN(C(=O)CN(C(=O)CN(CCCCN)C(=O)CN(CCc1cnc[nH]1)C(=O)CN(C(=O)CN(CCCCN)C(=O)CN(C(=O)CN(C(=O)CNCCCCN)[C@@H](C)c1ccccc1)[C@@H](C)c1ccccc1)[C@@H](C)c1ccccc1)[C@@H](C)c1ccccc1)[C@@H](C)c1ccccc1)[C@@H](C)c1ccccc1 [1-Nhis6] | 1.6 µM | 25 µM | – | – | – | – | – | – | 170 µM | > 200 µM |
| C[C@H](NCC(=O)N(CCCCN)CC(=O)N(CC(=O)N(CCCCN)CC(=O)N(CCCCN)CC(=O)N(CCCCN)CC(=O)N(CC(=O)N(CCCCN)CC(=O)N(CC(=O)N(CCCCN)CC(=O)N(CCCCN)CC(=O)N(CC(N)=O)[C@@H](C)c1ccccc1)[C@@H](C)c1ccccc1)[C@@H](C)c1ccccc1)[C@@H](C)c1ccccc1)c1ccccc1 [1B-Nlys4,6,10, H-(Nspe-Nlys)2-Nlys2-(Nspe-Nlys)2-Nlys-Nspe)-NH2] (H-[Nspe][Nlys][Nspe][Nlys][Nlys][Nlys][Nspe][Nlys][Nspe][Nlys][Nlys][Nspe]-NH2) | 1.6 µM | >100 µM | < 4.00 | – | – | – | – | – | – | – |

More lines, main results first:

| B. subtilis MIC [2] | E. coli MIC [3] | pIC50 [4] | SMILES | HD10 ([1]; Table 6) | HD50 ([1]; Table 6) | B. subtilis MIC ([2]; Table 6) | E. coli MIC ([3]; Table 6) | pIC50 [4, 5] | HD10 [1] | HD50 [1] |
| --- | --- | --- | --- | --- | --- | --- | --- | --- | --- | --- |
| 0.78 µM | >100 µM | 4.40 | C[C@H](NCC(=O)N(CCCCN)CC(=O)N(CC(=O)N(CCCCN)CC(=O)N(CCCCN)CC(=O)N(CCCCN)CC(=O)N(CC(=O)N(CCCCN)CC(=O)N(CC(=O)N(CCCCN)CC(=O)N(CCCCN)CC(=O)N(CC(=O)N(CC(=O)N(CCCCN)CC(=O)N(CC(N)=O)[C@@H](C)c1ccccc1)[C@@H](C)c1ccccc1)[C@@H](C)c1ccccc1)[C@@H](C)c1ccccc1)[C@@H](C)c1ccccc1)[C@@H](C)c1ccccc1)c1ccccc1 [1B15mer-Nlys4,6,10, H-(Nspe-Nlys)2-Nlys2-(Nspe-Nlys)2-Nlys-Nspe2-Nlys-Nspe-NH2] (H-[Nspe][Nlys][Nspe][Nlys][Nlys][Nlys][Nspe][Nlys][Nspe][Nlys][Nlys][Nspe][Nspe][Nlys][Nspe]-NH2) | – | – | – | – | – | – | – |
| 1.6 µM | 6.3 µM | 5.31 | C[C@H](NCC(=O)N(CCCCN)CC(=O)N(CC(=O)N(CC(=O)N(CCCCN)CC(=O)N(CC(=O)N(CC(=O)N(CCCCN)CC(=O)N(CC(=O)N(CC(=O)N(CCCCN)CC(=O)N(CC(N)=O)[C@@H](C)c1ccccc1)[C@@H](C)c1ccccc1)[C@@H](C)c1ccccc1)[C@@H](C)c1ccccc1)[C@@H](C)c1ccccc1)[C@@H](C)c1ccccc1)[C@@H](C)c1ccccc1)c1ccccc1 [1B, H-(Nspe-Nlys-Nspe)4-NH2] (H-[Nspe][Nlys][Nspe][Nspe][Nlys][Nspe][Nspe][Nlys][Nspe][Nspe][Nlys][Nspe]-NH2) | – | – | – | – | – | – | > 100 µM |
| 0.78 µM | 50 µM | 4.80 | C[C@H](NCC(=O)N(CCCCN)CC(=O)N(CC(=O)N(CCCCN)CC(=O)N(CCCCN)CC(=O)N(CC(=O)N(CC(=O)N(CCCCN)CC(=O)N(CC(=O)N(CCCCN)CC(=O)N(CCCCN)CC(=O)N(CC(=O)N(CC(=O)N(CCCCN)CC(=O)N(CC(N)=O)[C@@H](C)c1ccccc1)[C@@H](C)c1ccccc1)[C@@H](C)c1ccccc1)[C@@H](C)c1ccccc1)[C@@H](C)c1ccccc1)[C@@H](C)c1ccccc1)[C@@H](C)c1ccccc1)c1ccccc1 [1B15mer-Nlys4,10, H-(Nspe-Nlys-Nspe-Nlys-Nlys-Nspe)2-Nspe-Nlys-Nspe-NH2] (H-[Nspe][Nlys][Nspe][Nlys][Nlys][Nspe][Nspe][Nlys][Nspe][Nlys][Nlys][Nspe][Nspe][Nlys][Nspe]-NH2) | – | – | – | – | – | >200/>200 μM | >200/>200 μM |
| 1.6 µM | 6.3 µM | 5.25 | C[C@H](NCC(=O)N(CC(=O)N(CCCCN)CC(=O)N(CC(=O)N(CC(=O)N(CCCCN)CC(=O)N(CC(=O)N(CC(=O)N(CCCCN)CC(=O)N(CC(=O)N(CC(=O)N(CCCCN)CC(N)=O)[C@@H](C)c1ccccc1)[C@@H](C)c1ccccc1)[C@@H](C)c1ccccc1)[C@@H](C)c1ccccc1)[C@@H](C)c1ccccc1)[C@@H](C)c1ccccc1)[C@@H](C)c1ccccc1)c1ccccc1 [1C, H-(Nspe-Nspe-Nlys)4-NH2] (H-[Nspe][Nspe][Nlys][Nspe][Nspe][Nlys][Nspe][Nspe][Nlys][Nspe][Nspe][Nlys]-NH2) | – | – | – | – | – | 25 µM | > 100 µM |
| 0.78 µM | 6.3 µM | 4.96 | C[C@@H](c1ccccc1)N(CC(=O)N(CC(=O)N(CCCCN)CC(=O)N(CC(=O)N(CC(=O)N(CCCCN)CC(=O)N(CC(=O)N(CC(=O)N(CCCCN)CC(=O)N(CC(=O)N(CC(N)=O)Cc1ccccc1)Cc1ccccc1)Cc1ccccc1)Cc1ccccc1)Cc1ccccc1)Cc1ccccc1)Cc1ccccc1)C(=O)CNCCCCN [1ach-Nspe2, H-(Nlys-Nspe-Npm)-(Nlys-Npm-Npm)3-NH2] (H-[Nlys][Nspe][Nphe][Nlys][Nphe][Nphe][Nlys][Nphe][Nphe][Nlys][Nphe][Nphe]-NH2) | – | – | – | – | – | 160 µM | > 200 µM |
